Laboratory results reported in patent publication US8586505B2 (SDS Biotech K. K., priority 2009, dated 2013).

How the values were obtained:
[1] = system: Phytophthora infestans; assay: whole plant or invertebrate; assay type: in vivo; conditions: in Solanum lycopersicum, 96 h, read-out: Determination of control effect (preventive value)
[2] = system: Pseudoperonospora cubensis; assay: Test of examining control effect on Pseudoperonospora cubensis (potted cucumber plants); assay type: in vivo; conditions: 96 h, 10% wettable powder adjusted to 125 ppm, 15 ml/pot sprayed on potted cucumber plants one day before spray inoculation, assessed after 1 day wet chamber and 3 days greenhouse, read-out: Determination of control effect (preventive value) on Pseudoperonospora cubensis
In short: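 Preventive treatment: 125 ppm sample agent solution (from 10% wettable powder) sprayed at 15 ml/pot on 2.5-leaf Sagamihanjiro cucumbers, then P. cubensis inoculated next day at 1.0×10^4 cells/ml. Incubation was 1 day wet at 21° C plus 3 days greenhouse. Lesion area rate compared with untreated gives preventive value (≥60% high).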

[3] = system: Sphaerotheca fuliginea; assay: Test of examining control effect on Sphaerotheca fuliginea (potted cucumber plants); assay type: in vivo; conditions: Podosphaera fuliginea, 336 h; 10% wettable powder adjusted to 125 ppm, 15 ml/pot sprayed on potted cucumber plants one day before spray inoculation; assessed after 14 days in greenhouse; read-out: Determination of control effect (preventive value) on Sphaerotheca fuliginea
In short: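 Control effect rated high at preventive value 60–100% and low below 60%, from lesion area relative to untreated plants 14 days after spray inoculation with S. fuliginea (1.0×10^5 cells/ml). Compound applied at 125 ppm as wettable-powder spray one day before inoculation, on 2nd-leaf-stage Sagamihanjiro cucumber.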

[4] = system: Tetranychus urticae eggs; assay: Test of examining effect on Tetranychus urticae eggs (ovicidal rate); assay type: in vivo; conditions: 144 h, 0.4 ml sprayed, unhatched eggs counted six days later, read-out: Determination (ovicidal rate)
Method: Thereafter, the released female adults were removed. […] Six days later, the number of unhatched eggs was counted, and an ovicidal rate was calculated.

SMILES	pest or weed control at 125 ppm [1] [%]	pest or weed control at 125 µg/mL [2] [%]	pest or weed control at 125 µg/mL [3] [%]	pest or weed control at 250 ppm [4] [%]	melting point [°C]
CC(CC#Cc1ccc(F)cc1Cl)Nc1ncnc2sccc12 (stereo not drawn) [compound 247]	60 to 100	60 to 100	60 to 100	60 to 80	
CC(CC#Cc1ccc(Cl)cc1CO)Nc1ncnc2sccc12 (stereo not drawn) [compound 245]	60 to 100	60 to 100	60 to 100	80 to 95	
Cc1ccccc1C#CCC(C)Nc1ncnc2sccc12 (stereo not drawn) [compound 239]	60 to 100	60 to 100	60 to 100	80 to 95	
CC(CC#Cc1ccc(Cl)cc1C(F)(F)F)Nc1ncnc2c(F)cccc12 (stereo not drawn) [compound 348]	0 to 60	60 to 100	60 to 100	80 to 95	
O=[N+]([O-])c1ccccc1C#CCCNc1ncnc2sccc12 [compound 38]	60 to 100	60 to 100		60 to 80	
CC(CC#Cc1ccc(S(F)(F)(F)(F)F)cc1Cl)Nc1ncnc2sccc12 (stereo not drawn) [compound 253]	0 to 60	60 to 100	60 to 100	60 to 80	
C=C(C#CCCNc1ncnc2ccccc12)c1ccccc1 [compound 95]	0 to 60	60 to 100	0 to 60	60 to 80	
CC(F)c1ncnc(NCCC#Cc2ccc(Cl)cc2C(F)(F)F)c1Cl (stereo not drawn) [compound 377]	0 to 60	60 to 100	60 to 100	≥ 95	
CCC(CC#Cc1ccccc1)Nc1ncnc2sccc12 (stereo not drawn) [compound 267]	0 to 60	60 to 100	60 to 100	60 to 80	
Cc1ncnc(NC(C)CC#Cc2ccc(Cl)cc2C(F)(F)F)c1Cl (stereo not drawn) [compound 385]	0 to 60	60 to 100	60 to 100	≥ 95	
CCc1ccc(C#CCC(C)Nc2ncnc3sccc23)cc1 (stereo not drawn) [compound 240]	60 to 100	60 to 100		60 to 80	
CC(CC#Cc1ccc(S(F)(F)(F)(F)F)cc1Cl)Nc1ncnc2ccccc12 (stereo not drawn) [compound 283]	60 to 100	60 to 100	60 to 100	60 to 80	
CC(CC#Cc1ccc(C(F)(F)F)cc1)Nc1ncnc2sccc12 (stereo not drawn) [compound 235]	60 to 100	60 to 100	60 to 100	≥ 95	
CC(F)c1ncnc(NCCC#Cc2ccccc2)c1Cl (stereo not drawn) [compound 376]	60 to 100	60 to 100	60 to 100	≥ 95	
CC(CC#Cc1cc(F)ccc1C(F)(F)F)Nc1ncnc2sccc12 (stereo not drawn) [compound 248]	0 to 60	60 to 100	60 to 100	60 to 80	
C(#Cc1ccccc1)CCNc1ncnc2sccc12 [compound 10, 4-(4-Phenyl-3-butynylamino)thieno[2,3-d]pyrimidine]	60 to 100	60 to 100	60 to 100	60 to 80	
CC(CC#Cc1ccc(C(F)(F)F)cc1Cl)Nc1ncnc2sccc12 (stereo not drawn) [compound 257]	60 to 100	60 to 100	60 to 100	80 to 95	

SMILES	pest or weed control at 125 ppm [1] [%]	pest or weed control at 125 µg/mL [2] [%]	pest or weed control at 125 µg/mL [3] [%]	pest or weed control at 250 ppm [4] [%]	melting point [°C]
CC(CC#Cc1ccc(Cl)cc1C(F)(F)F)Nc1ncnc2ccccc12 (stereo not drawn) [compound 285]	60 to 100	60 to 100	60 to 100	≥ 95	
CC(CC#Cc1ccccc1C(F)(F)F)Nc1ncnc2sccc12 (stereo not drawn) [compound 233]	60 to 100	60 to 100	60 to 100	80 to 95	
CC(CC#Cc1c(Cl)cc(C(F)(F)F)cc1Cl)Nc1ncnc2sccc12 (stereo not drawn) [compound 262]		60 to 100	60 to 100	≥ 95	
COc1cccc(Oc2nc(C#CCCNc3ncnc4ccccc34)cs2)c1 [compound 216]	60 to 100	60 to 100	60 to 100		77 to 79
C(#Cc1ccncc1)CCNc1ncnc2sccc12 [compound 57]	0 to 60	0 to 60	0 to 60		140 to 141
N#Cc1c(F)cccc1C#CCCNc1ncnc2ccccc12 [compound 165]	0 to 60	60 to 100	60 to 100		163 to 164
COCc1ccccc1C#CCCNc1ncnc2ccc(I)cc12 [compound 322]	0 to 60	60 to 100	60 to 100		121 to 123
C(#Cc1ccc(OC2CCCCO2)cc1)CCNc1ncnc2ccccc12 (stereo not drawn) [compound 156]	60 to 100	60 to 100	60 to 100		163 to 165
CCOC(=O)c1cnc(C#CCCNc2ncnc3ccccc23)s1 [compound 213]	0 to 60	60 to 100	60 to 100		113 to 114
Fc1cncc(C#CCCNc2ncnc3ccccc23)c1 [compound 193]	60 to 100	60 to 100	60 to 100		145 to 150
COCc1ccccc1C#CCCNc1ncnc2c(Cl)cc(Cl)cc12 [compound 338]	0 to 60	60 to 100	0 to 60		161 to 162
Fc1ccc(C#CCCNc2ncnc3ccccc23)cc1F [compound 166]	60 to 100	60 to 100	60 to 100		161 to 162
C(#Cc1csc(-c2ccoc2)n1)CCNc1ncnc2sccc12 [compound 78]	0 to 60	60 to 100	60 to 100		140 to 142
CC(CC#Cc1cscn1)Nc1ncnc2ccccc12 (stereo not drawn) [compound 291]	0 to 60	60 to 100	60 to 100		142 to 145
C(#Cc1ccccc1)CCNc1ncnc2ccccc12 [compound 96]	60 to 100	60 to 100	60 to 100		120 to 122
FC(F)(F)c1cccc(C#CCCNc2ncnc3sccc23)c1 [compound 26]	0 to 60	60 to 100	60 to 100		123 to 125
